This note sets out measurements from patent publication US10758478B2, “Active agent loaded uniform, rigid, spherical, nanoporous calcium phosphate particles and methods of making and using the same” (Laboratory Skin Care, Inc., priority 2008, dated 2020).

Data set [1] is described as follows: Solubility of salicylic acid (water, ethanol and PEG). It counts as physicochemical.
Data set [2] can be described thus: Binding capacity to hydroxyapatite. It counts as physicochemical.

Take `O=C(O)c1ccccc1O` [Salicylic acid, 2-Hydroxybenzoic acid]: the “solubility in ethanol and PEG (poly ethylene glycol)” value in data set [1] (ethanol and PEG) was “up to 30%”. The solubility in water entry in data set [1] (water) is on record as “water insoluble”. For the same compound, the “binding capacity to hydroxyapatite” value in data set [2] was at most 1 mg.
